Data: ChEMBL document CHEMBL1201862, “PubChem BioAssay data set” (2004)
Values belong to the compound of their own block, whether it stands above or below them. Activity calls are given as the source filed them.

Key:
[1] = biological target: 5-hydroxytryptamine receptor 1A (Homo sapiens, UniProt P08908); format: functional
[2] = biological target: NADPH oxidase 1 (Homo sapiens, UniProt Q9Y5S8); test: Late-stage luminescence-based cell-based dose response assay to identify inhibitors of NADPH oxidase 1 (NOX1): Synthesized analogs.; format: functional
NADPH oxidase 1, sequence (Q9Y5S8 whole entry): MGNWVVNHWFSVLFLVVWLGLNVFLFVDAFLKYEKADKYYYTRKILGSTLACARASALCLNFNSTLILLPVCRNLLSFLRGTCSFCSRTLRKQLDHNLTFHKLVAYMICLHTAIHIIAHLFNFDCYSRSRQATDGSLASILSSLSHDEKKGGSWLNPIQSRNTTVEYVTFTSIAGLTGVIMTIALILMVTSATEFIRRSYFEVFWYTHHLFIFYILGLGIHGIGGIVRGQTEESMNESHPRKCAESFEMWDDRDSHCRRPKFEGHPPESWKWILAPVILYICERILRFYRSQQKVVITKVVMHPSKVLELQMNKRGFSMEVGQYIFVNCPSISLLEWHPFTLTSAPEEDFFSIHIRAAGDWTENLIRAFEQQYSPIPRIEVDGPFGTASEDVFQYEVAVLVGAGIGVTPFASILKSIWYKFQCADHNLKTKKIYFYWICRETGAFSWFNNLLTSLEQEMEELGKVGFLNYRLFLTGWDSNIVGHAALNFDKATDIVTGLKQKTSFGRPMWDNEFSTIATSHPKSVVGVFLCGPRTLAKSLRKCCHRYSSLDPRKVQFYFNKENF

[3] = biological target: G-protein coupled receptor 183 (Homo sapiens, UniProt P32249); test: SAR confirmation of small molecule antagonists of the EBI2 receptor via a luminescent beta-arrestin assa.; format: functional
G-protein coupled receptor 183, sequence (P32249 whole entry): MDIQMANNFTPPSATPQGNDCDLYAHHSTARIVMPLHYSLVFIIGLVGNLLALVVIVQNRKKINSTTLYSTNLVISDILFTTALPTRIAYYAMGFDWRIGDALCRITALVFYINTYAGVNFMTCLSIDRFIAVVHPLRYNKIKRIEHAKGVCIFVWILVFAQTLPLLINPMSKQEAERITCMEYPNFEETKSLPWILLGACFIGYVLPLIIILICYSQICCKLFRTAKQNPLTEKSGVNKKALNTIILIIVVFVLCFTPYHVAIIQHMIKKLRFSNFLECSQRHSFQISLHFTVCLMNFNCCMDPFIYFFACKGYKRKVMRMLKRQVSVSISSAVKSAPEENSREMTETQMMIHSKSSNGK

[4] = P. falciparum Dd2 growth inhibitors, dose response, SYBR Green, cherry-picked samples (AID 1159567); format: functional, cell-based
[5] = growth inhibition of PfATP4-mutant resistant parasites – NITD609-resistant line, SYBR Green, dry powder, dose response (AID 1159571); format: functional, cell-based;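 further: parasites synchronized at ring stage by sorbitol before testing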
[6] = growth inhibition of yeast DHODH-expressing 3D7 parasites – SYBR Green, dry powder samples, dose response (AID 1159570); format: functional, cell-based;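 further: parasite growth measured after 72 hours of compound exposure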
[7] = Dd2 malaria parasite growth inhibition potency – SYBR Green, dry powder samples, dose response (AID 1159566); format: functional, cell-based;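 further: potency for growth inhibition with lower SYBR green DNA signal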
[8] = Dd2 parasite growth inhibition in erythrocytes – SYBR Green, dry powder samples, set 9, dose response (AID 1159568); format: functional, cell-based
[9] = toxicity to human HepG2 hepatoma cells – cell-based, plate reader, dry powder samples, cytotoxicity control, dose response (AID 1159569); format: functional;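 further: inhibitor potency with signal falling toward the positive control level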
[10] = Plasmodium falciparum Dd2 Sybr green parasite growth Measured in Cell-Based and Microorganism Combination System Using Plate Reader - 2153-01_Inhibitor_Dose_DryPowder_Activity_Set3.; format: functional
[11] = biological target: T1, Aspartyl aminopeptidase (Plasmodium falciparum 3D7, UniProt Q8I2J3); test: Counterscreen for inhibitors of M1 and M17 aminopeptidases: QFRET-based biochemical high throughput dose response assay for inhibitors of the Plasmodium falciparum M18 Aspartyl Aminopeptidase (PFM18AAP). [Related PubChem assays: 1619 (Screening assay (M17LAP inhibitors).), 1445 (Screening assay (M1AAP inhibitors).)]
T1 sequence (Q8I2J3 whole entry): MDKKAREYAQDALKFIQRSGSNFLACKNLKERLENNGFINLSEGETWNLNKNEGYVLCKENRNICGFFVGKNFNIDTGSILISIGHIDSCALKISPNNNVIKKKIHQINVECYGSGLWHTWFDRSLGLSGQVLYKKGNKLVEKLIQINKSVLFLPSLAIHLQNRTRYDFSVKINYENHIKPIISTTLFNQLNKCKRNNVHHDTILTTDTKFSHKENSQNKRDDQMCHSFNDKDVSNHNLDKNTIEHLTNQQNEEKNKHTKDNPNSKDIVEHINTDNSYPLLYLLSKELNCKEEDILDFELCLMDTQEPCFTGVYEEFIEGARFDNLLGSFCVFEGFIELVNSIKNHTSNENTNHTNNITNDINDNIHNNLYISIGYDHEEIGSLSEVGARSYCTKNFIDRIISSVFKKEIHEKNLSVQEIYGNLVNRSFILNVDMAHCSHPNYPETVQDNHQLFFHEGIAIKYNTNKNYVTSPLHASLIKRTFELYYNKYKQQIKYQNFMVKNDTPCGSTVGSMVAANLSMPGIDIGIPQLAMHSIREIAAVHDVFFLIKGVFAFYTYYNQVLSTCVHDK

[12] = biological target: fMet-Leu-Phe receptor (Homo sapiens, UniProt P21462); test: formyl peptide receptor binders – dose response (AID 519); format: functional
fMet-Leu-Phe receptor, sequence (P21462 whole entry): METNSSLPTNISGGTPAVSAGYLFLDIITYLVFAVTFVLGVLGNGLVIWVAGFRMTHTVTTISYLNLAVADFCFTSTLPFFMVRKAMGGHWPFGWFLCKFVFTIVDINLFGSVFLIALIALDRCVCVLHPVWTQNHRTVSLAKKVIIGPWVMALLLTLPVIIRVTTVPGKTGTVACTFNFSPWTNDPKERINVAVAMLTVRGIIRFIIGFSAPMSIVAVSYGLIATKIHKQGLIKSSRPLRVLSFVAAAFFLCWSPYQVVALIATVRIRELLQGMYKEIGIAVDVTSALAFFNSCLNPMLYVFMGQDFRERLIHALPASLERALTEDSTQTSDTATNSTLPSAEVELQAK

[13] = biological target: Procathepsin L (Homo sapiens, UniProt P07711); test: CTSL1 protease inhibition – biochemical, QFRET, 1536-well, counter-screen for M1/M17 aminopeptidase inhibitor project, dose response (AID 2214)
Procathepsin L, sequence (P07711 whole entry): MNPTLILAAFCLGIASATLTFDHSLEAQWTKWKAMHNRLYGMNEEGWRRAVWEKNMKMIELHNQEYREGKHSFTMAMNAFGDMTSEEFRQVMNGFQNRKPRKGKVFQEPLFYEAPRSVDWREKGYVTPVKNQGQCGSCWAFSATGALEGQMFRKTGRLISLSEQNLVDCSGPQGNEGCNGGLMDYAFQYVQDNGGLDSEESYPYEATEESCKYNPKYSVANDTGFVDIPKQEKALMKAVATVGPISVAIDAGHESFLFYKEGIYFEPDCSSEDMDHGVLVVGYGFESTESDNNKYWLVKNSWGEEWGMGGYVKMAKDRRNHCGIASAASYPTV

[14] = biological target: T2, Leucine aminopeptidase (Plasmodium falciparum 3D7, UniProt Q8IL11); test: P. falciparum M17LAP inhibitors, primary screen, biochemical, fluorogenic H-Leu-NHMec substrate, 1536-well (AID 1619); format: functional
T2 sequence (Q8IL11 whole entry): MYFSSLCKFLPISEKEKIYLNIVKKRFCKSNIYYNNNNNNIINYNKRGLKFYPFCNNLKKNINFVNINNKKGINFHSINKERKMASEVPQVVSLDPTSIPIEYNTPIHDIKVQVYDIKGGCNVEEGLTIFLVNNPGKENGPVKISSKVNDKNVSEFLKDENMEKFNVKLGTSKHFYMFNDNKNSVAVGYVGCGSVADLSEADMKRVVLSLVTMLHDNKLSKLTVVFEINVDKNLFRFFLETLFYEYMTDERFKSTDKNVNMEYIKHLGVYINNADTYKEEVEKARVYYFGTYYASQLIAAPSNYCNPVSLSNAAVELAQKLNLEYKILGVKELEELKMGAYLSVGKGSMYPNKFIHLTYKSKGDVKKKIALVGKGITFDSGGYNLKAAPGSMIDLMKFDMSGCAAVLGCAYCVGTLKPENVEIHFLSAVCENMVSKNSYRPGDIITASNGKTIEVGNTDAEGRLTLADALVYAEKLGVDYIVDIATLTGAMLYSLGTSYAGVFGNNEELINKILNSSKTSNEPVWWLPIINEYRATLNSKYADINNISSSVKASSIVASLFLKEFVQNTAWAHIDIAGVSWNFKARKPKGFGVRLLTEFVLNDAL

[15] = loss of A549 viability via ATP – cell-based, plate reader, dry powder, set 7, cytotoxicity control, dose response (AID 743318); format: functional
[16] = biological target: Solute carrier family 12 member 2/member 5 (Homo sapiens, UniProt P55011+Q9H2X9); test: KCC2 and NKCC1 inhibition by rubidium flux, cell-based, NKCC1 counter-screen (AID 1734); format: functional, HEK293
[17] = biological target: Voltage-gated inwardly rectifying potassium channel KCNH2 (Homo sapiens, UniProt Q12809); test: concentration-dependent hERG rescue from blockers – cell-based, thallium flux, dose response (AID 2121); format: ADME
Voltage-gated inwardly rectifying potassium channel KCNH2, sequence (Q12809 whole entry): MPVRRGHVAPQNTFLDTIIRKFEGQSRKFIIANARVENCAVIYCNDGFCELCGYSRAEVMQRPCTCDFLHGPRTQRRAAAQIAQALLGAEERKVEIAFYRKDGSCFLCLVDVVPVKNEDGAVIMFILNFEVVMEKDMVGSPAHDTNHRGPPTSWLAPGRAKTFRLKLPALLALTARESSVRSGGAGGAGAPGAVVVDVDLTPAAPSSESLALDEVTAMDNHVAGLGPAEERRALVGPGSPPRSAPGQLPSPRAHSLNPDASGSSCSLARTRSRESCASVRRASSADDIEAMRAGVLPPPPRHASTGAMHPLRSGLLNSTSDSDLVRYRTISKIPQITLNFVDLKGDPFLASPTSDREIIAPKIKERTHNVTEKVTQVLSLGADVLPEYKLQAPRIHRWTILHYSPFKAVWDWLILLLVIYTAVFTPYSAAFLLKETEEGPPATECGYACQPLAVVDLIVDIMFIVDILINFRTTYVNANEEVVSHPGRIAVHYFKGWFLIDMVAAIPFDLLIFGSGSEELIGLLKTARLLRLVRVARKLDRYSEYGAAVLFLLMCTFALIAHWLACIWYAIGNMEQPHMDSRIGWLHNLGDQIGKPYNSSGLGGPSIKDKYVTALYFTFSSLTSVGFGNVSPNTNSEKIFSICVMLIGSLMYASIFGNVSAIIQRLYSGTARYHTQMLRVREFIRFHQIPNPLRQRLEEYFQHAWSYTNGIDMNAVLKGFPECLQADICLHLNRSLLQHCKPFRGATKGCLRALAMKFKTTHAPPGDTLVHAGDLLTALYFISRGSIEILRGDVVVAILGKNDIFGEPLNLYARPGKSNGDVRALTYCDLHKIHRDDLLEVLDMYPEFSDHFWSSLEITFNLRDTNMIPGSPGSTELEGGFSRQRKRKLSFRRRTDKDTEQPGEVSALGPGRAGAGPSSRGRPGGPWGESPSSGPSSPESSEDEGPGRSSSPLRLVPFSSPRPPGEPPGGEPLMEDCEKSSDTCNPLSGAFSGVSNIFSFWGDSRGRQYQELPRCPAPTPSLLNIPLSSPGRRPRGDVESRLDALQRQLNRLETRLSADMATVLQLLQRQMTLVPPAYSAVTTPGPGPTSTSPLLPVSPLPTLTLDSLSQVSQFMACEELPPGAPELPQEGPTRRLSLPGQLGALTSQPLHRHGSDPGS

5-hydroxytryptamine receptor 1A, sequence (P08908 whole entry): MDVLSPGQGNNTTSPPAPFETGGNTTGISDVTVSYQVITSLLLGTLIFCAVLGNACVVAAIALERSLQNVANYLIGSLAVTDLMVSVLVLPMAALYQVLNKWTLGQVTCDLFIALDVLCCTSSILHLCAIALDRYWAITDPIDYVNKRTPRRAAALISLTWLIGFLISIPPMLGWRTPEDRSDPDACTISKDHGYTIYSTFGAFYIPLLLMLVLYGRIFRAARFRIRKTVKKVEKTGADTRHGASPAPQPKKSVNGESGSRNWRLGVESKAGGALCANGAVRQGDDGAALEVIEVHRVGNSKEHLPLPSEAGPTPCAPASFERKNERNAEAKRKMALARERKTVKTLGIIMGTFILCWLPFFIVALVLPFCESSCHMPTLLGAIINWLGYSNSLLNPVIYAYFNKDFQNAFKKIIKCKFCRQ

EC50 [1]: > 50 µM (not active)
SMILES: CCOC(=O)C1=C(C)NC(=O)NC1c1ccc(OCC(=O)Nc2ccccc2)c(OC)c1 (configuration not stated)

IC50 [2]: 0.561 µM (active)
SMILES: CC(=NNc1ccc(C(=O)O)cc1)c1ccc2c(c1)Nc1ccccc1S2

IC50 [16]: 2.9 µM (active)
SMILES: O=C(CN1C(=O)NC2(CCCC2)C1=O)Nc1nc(-c2ccc(F)cc2)cs1

Second part, the compound before the results:

SMILES: O=C(/C=C/c1ccc(F)cc1)N1CCN(S(=O)(=O)c2ccc3ccccc3c2)CC1
IC50 [3]: 0.0212 µM (active)

SMILES: CO[C@@H]1CN(C)C(=O)c2ccc(NC(=O)NC(C)C)cc2OC[C@@H](C)N(Cc2ccccc2)C[C@H]1C
AC50 [4]: 1.78 µM (active)
AC50 [5]: 1.9 µM (active)
AC50 [6]: 5.13 µM (active)
AC50 [7]: 0.299 µM (active)
AC50 [8]: 0.493 µM (active)
AC50 [9]: > 100 µM (inactive)
AC50 [10]: 1.4 µM (active)

SMILES: CCOC(=O)c1c(NC(=O)C2C3CCC(O3)C2C(=O)O)sc(C)c1-c1ccc(C)cc1 (configuration not stated)
IC50 [11]: > 73.5 µM (not active)
Ki [12]: 63.3 µM (inactive)
IC50 [13]: > 59.6 µM (not active)
IC50 [14]: 6.69 µM (active)

SMILES: Cc1cccc(OCCn2c(=S)[nH]c3cc(C(F)(F)F)ccc32)c1
AC50 [15]: 36 µM (active)

SMILES: O=C(NC(=S)NCCc1ccccc1)c1cccc(Cl)c1
EC50 [17]: 3.5 µM (active)
